# According to ChEMBL document CHEMBL6109156, “Discovery of Dual PD-L1/HDAC3 Inhibitors for Tumor Immunotherapy” (J Med Chem, 2025):
# What was measured:
# B16-F10 [1] = test: Induction of apoptosis in mouse B16-F10 cells assessed as viable cells at 4 uM incubated for 48 hrs by Annexin V-FITC/PI staining based flow cytometry analysis (reference value: 92.3%); format: functional; settings: read-out: Activity
# B16-F10 [2] = test: Induction of apoptosis in mouse B16-F10 cells assessed as early apoptotic cells at 8 uM incubated for 48 hrs by Annexin V-FITC/PI staining based flow cytometry analysis (reference value: 0.45 %); format: functional
# B16-F10 [3] = test: Induction of apoptosis in mouse B16-F10 cells assessed as late apoptotic cells at 2 uM incubated for 48 hrs by Annexin V-FITC/PI staining based flow cytometry analysis (reference value: 5.02 %); format: functional
# B16-F10 [4] = test: Induction of apoptosis in mouse B16-F10 cells assessed as early apoptotic cells at 2 uM incubated for 48 hrs by Annexin V-FITC/PI staining based flow cytometry analysis (reference value: 0.45 %); format: functional
# B16-F10 [5] = test: Induction of apoptosis in mouse B16-F10 cells assessed as viable cells at 1 uM incubated for 48 hrs by Annexin V-FITC/PI staining based flow cytometry analysis (reference value: 92.3%); format: functional; settings: read-out: Activity
# [6] = Toxicity in C57BL/6J mouse implanted with mouse B16-F10 cells assessed as body weight loss at 20 to 40 mg/kg, ip administered once daily for 9 days; format: organism-based; settings: in vivo, 216 h, dose 20-40 mg/kg, time 9 day
# A-375 = test: Antiproliferative activity against human A-375 cells co-cultured with human Jurkat T cells incubated for 48 hrs by MTT assay; format: functional, cell-based; settings: dose 0.0625-1 µM
# B16-F10 [7] = test: Induction of cell cycle arrest in mouse B16-F10 cells assessed as accumulation of cells at S phase at 2 uM incubated for 48 hrs by PI staining based flow cytometry analysis (reference value: 24.04%); format: functional
# B16-F10 [8] = test: Antitumor activity against mouse B16-F10 cells implanted in C57BL/6J mouse assessed as tumor growth inhibition at 20 mg/kg, ip administered once daily for 9 days; format: functional; settings: B16-F10, 216 h, time 9 day, read-out: TGI
# B16-F10 [9] = test: Induction of apoptosis in mouse B16-F10 cells assessed as late apoptotic cells at 8 uM incubated for 48 hrs by Annexin V-FITC/PI staining based flow cytometry analysis (reference value: 5.02 %); format: functional
# B16-F10 [10] = test: Induction of cell cycle arrest in mouse B16-F10 cells assessed as accumulation of cells at G0/G1 phase at 8 uM incubated for 48 hrs by PI staining based flow cytometry analysis (reference value: 70.09%); format: functional
# Histone deacetylase 1 = Histone deacetylase 1 (Homo sapiens, UniProt Q13547); test: Inhibition of human recombinant HDAC1 using Ac-Leu-Gly-Lys (Ac)-AMC as substrate preincubated for 10 mins followed by substrate addition and measured after 45 mins by TECAN microtiter plate reader analysis
# Chain of Histone deacetylase 1 (Q13547 whole entry): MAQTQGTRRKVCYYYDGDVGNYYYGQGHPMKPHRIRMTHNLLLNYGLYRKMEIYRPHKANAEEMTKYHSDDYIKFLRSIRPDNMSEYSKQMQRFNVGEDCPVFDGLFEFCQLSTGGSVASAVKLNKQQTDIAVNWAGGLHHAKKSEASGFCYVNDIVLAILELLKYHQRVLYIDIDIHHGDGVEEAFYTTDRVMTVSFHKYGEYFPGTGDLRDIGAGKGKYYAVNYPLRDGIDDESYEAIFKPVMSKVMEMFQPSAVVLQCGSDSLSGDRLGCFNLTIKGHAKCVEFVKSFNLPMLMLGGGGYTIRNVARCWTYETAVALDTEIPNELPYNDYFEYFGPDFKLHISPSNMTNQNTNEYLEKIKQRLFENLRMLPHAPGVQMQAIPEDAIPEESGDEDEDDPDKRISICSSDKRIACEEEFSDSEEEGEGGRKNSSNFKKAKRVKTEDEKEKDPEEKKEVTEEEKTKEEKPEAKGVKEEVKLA
# B16-F10 [11] = test: Induction of cell cycle arrest in mouse B16-F10 cells assessed as accumulation of cells at G0/G1 phase at 4 uM incubated for 48 hrs by PI staining based flow cytometry analysis (reference value: 70.09%); format: functional
# [12] = Toxicity in C57BL/6J mouse implanted with mouse B16-F10 cells assessed as liver damage at 20 to 40 mg/kg, ip administered once daily for 9 days by H and E staining based analysis; format: organism-based; settings: in vivo, 216 h, dose 20-40 mg/kg, time 9 day
# B16-F10 [13] = test: Induction of cell cycle arrest in mouse B16-F10 cells assessed as accumulation of cells at G2/M phase at 8 uM incubated for 48 hrs by PI staining based flow cytometry analysis (reference value: 5.87%); format: functional
# [14] = molecular target: T1, Protein deacetylase HDAC6 (Homo sapiens, UniProt Q9UBN7); test: Inhibition of human recombinant HDAC6 using Ac-Leu-Gly-Lys (Ac)-AMC as substrate preincubated for 10 mins followed by substrate addition and measured after 45 mins by TECAN microtiter plate reader analysis
# T1 sequence (Q9UBN7 whole entry): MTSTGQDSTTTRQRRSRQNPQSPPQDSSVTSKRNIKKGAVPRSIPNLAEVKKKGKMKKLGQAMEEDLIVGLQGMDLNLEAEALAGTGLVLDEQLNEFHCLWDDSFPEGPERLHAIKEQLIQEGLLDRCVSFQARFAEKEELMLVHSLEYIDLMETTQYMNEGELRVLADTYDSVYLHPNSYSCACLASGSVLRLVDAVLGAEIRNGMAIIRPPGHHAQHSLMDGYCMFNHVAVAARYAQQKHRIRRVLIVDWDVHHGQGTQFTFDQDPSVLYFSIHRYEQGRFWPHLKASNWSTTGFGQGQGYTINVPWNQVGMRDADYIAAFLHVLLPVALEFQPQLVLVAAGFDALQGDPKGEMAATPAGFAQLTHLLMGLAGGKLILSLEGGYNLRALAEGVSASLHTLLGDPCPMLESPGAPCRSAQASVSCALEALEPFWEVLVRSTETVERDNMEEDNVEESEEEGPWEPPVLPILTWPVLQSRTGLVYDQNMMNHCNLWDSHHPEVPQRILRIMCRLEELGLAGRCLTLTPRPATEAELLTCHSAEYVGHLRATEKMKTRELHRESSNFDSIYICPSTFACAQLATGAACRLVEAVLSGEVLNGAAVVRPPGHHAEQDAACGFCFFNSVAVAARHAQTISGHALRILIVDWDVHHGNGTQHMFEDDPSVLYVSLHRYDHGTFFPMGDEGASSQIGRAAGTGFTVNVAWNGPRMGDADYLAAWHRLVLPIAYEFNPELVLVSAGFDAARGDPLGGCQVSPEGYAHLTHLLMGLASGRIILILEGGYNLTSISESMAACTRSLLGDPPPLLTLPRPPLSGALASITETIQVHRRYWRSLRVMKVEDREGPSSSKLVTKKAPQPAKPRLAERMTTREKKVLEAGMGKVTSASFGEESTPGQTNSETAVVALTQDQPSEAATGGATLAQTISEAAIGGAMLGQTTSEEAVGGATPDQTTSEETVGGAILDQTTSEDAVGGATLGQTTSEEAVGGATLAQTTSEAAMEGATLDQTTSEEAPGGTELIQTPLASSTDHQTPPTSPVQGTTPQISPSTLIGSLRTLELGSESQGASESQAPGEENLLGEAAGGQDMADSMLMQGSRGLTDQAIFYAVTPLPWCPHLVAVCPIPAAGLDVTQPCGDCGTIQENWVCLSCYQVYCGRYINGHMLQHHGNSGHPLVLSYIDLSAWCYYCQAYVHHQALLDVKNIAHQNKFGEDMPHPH
# Histone deacetylase 3 = Histone deacetylase 3 (Homo sapiens, UniProt O15379); test: Inhibition of human recombinant HDAC3 using Ac-Leu-Gly-Lys (Ac)-AMC as substrate at 1 uM preincubated for 10 mins followed by substrate addition and measured after 45 mins by TECAN microtiter plate reader analysis relative to control; settings: time 55.0 min
# Chain of Histone deacetylase 3 (O15379 whole entry): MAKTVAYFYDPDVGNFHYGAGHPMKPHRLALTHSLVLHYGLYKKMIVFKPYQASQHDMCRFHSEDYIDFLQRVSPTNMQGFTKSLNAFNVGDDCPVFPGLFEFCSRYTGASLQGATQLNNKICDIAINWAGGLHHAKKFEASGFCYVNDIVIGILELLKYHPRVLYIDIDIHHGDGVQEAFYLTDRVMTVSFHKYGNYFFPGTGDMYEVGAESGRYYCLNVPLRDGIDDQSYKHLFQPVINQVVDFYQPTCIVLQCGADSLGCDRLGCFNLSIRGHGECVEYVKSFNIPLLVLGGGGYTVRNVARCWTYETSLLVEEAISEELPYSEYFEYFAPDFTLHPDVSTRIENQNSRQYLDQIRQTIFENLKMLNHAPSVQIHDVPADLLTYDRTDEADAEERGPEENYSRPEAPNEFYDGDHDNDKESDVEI
# B16-F10 [15] = test: Immunomodulatory activity in mouse B16-F10 cells implanted in C57BL/6J mouse assessed as percentage of CD3 positive CD4 positive cells in tumor at 20 mg/kg, ip administered once daily for 9 days by flow cytometric analysis (reference value: 0.20 %); format: functional; settings: time 9 day
# 4T1 = test: Antiproliferative activity against mouse 4T1 cells assessed as cell growth inhibition incubated for 48 hrs by MTT assay; format: functional, cell-based; settings: 4T1, 48 h
structure (smiles),measurement,setting,value
CCCNNC(=O)CCCNCc1ccc(-c2cccc(-c3ccccc3)c2C)nc1OC,viability at 4 µM,B16-F10 [1],62.3%
same,Activity,B16-F10 [2],32.8%
same,Activity,B16-F10 [3],14.1%
same,Activity,B16-F10 [4],9.81%
same,viability at 1 µM,B16-F10 [5],84.8%
same,Activity,[6],Non-toxic
same,Activity,A-375,Dose-dependent-effect
same,Activity,B16-F10 [7],7.79%
same,inhibition in vivo at 20 mg/kg,B16-F10 [8],48.9%
same,Activity,B16-F10 [9],11.4%
same,Activity,B16-F10 [10],96.8%
same,IC50,Histone deacetylase 1,2.23 µM
same,Activity,B16-F10 [11],91.66%
same,Activity,[12],Non-toxic
same,Activity,B16-F10 [13],2.69%
same,IC50,[14],> 10 µM
same,inhibition,Histone deacetylase 3,83.1%
same,Activity,B16-F10 [15],1.75%
same,IC50,4T1,4.66 µM
